Assay results: US20040072801A1, “Sterols bearing pendant allosteric effectors of hemoglobin, and uses thereof” (priority 2002, published 2004)
“And” between values parts separate entries of the source, which are not always exact repeats. Equal values may be shown once. “Also recorded” adds a separate entry of the source. Read-outs that look alike come from different tables or passages of the source.

Tests used:
C57B1/6 mice [1] = experiment: Tolerability and pharmacodynamics of SV184 and SV192 after iv injection; format: in vivo, mouse; details: for toxicity upon iv injection in mice: 30 mM effector solution; for shift of P50 in blood of surviving mice: less than 200 μL iv, blood taken 4 and 24 hours after injection
Experimental: The tolerability and pharmacodynamics of the compounds SV184 and SV192 were tested in a small number of C57B1/6 mice. Mice receiving the whole volume of 200 μL of (30 mM) effector solution died immediately after injection or during injection (injection time 10-20 min). Eight mice receiving less than 200 μL of the compound solution survived. These mice were fast breathing and shaking, but recovered after 4 hours. […] Therefore, new derivatives were synthesized in our labs.

Free Hemoglobin = Free Hemoglobin (Homo sapiens, UniProt P68871); experiment: P50 of free hemoglobin with effector (Table 1); format: biochemical; details: ratio 1:1 (2.5 mM:2.5 mM), pH 7.1-7.2, 37° C.
Free Hemoglobin, sequence (P69905 2-142 partner limits assumed): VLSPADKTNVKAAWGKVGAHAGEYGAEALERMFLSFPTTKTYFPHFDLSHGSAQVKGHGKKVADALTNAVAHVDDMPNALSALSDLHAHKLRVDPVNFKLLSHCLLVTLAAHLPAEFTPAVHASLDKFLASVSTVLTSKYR
Free Hemoglobin, sequence (P68871 2-147 limits assumed): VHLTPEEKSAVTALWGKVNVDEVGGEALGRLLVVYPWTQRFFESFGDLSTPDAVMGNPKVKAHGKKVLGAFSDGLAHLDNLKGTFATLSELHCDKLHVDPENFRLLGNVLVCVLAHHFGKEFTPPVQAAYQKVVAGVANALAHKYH
Excerpt: The sample chamger contained:

C57B1/6 mice [2] = experiment: Tolerability and pharmacodynamics of SV184 and SV192 after iv injection; format: in vivo, mouse
[3] = tested on: human RBCs in whole blood; experiment: P50 of RBCs after in vitro incubation of human whole blood with effector (Hemox Analyzer); details: for P50 Increase % / P50 mm HG EFF:WB: EFF:WB 1:1.5; for lysis of the RBC: physiological or nearly physiological osmotic pressure, in vitro whole blood; for lysis of red blood cells (hemolysis): tested on whole blood
[4] = tested on: mouse RBCs in whole blood; experiment: P50 of RBCs after in vitro incubation of mouse whole blood with effector (Hemox Analyzer); format: cell-based; details: for P50 Increase %: mouse WB
stripped hemoglobin = stripped hemoglobin (Homo sapiens, UniProt P68871); details: pH 7.4, cited from earlier work
stripped hemoglobin, sequence (P69905 2-142 partner limits assumed): as the sequence (P69905 2-142 partner limits assumed) above
stripped hemoglobin, sequence (P68871 2-147 limits assumed): as the sequence (P68871 2-147 limits assumed) above

mice RBC = format: in vivo; details: ip 30, 45 and 60 mM; three hours after injection
Experimental: Three hours after injection, samples of blood were taken for P50 measurements. […] We have observed the shift of the P50 values in the blood from the injected animals over 3 days.
The P50 shift of RBC is similar to iv injections at concentrations of 30 and 45 mM.

C57B1/6 mice [5] = tested on: C57B1/6 mice
[6] = target: T1, C57B1/6 mice free hemoglobin (Mus musculus, UniProt P02088); experiment: P50 of mouse free hemoglobin after incubation with KF effectors; format: biochemical; details: effector 2.5 mM : mouse hemoglobin 2.5 mM, 1:1; pH 7.0
T1 construct: P50 values of C57B1/6 mice free hemoglobin after incubation with; from tissue; host or cells: blood of C57Bl/6 mice (inferred; the preparation is not described)
T1 sequence (P01942 2-142 partner limits assumed): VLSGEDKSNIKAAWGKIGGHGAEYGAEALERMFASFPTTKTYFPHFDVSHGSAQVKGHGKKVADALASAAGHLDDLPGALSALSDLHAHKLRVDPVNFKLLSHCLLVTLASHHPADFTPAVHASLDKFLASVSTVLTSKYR
T1 sequence (P02088 2-147 limits assumed): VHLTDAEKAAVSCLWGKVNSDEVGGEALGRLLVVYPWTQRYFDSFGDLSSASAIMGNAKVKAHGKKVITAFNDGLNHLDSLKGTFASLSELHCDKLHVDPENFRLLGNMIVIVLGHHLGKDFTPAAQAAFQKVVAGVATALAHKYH
Experimental: The pH of the compound solutions was adjusted to approximately 7.1 and effector solution (2.5 mM) and mouse hemoglobin (2.5 mM) were mixed at 1:1 ratio. The osmolarity was adjusted to 218-310 mOsM. Effectors and whole blood (WB) at 1:1.5 were incubated at 37° C. for 60 minutes.
They were tested for P50 right shift with mouse hemoglobin. The pH was adjusted to approximately 7.0 and effector solution (2.5 mM) and mouse hemoglobin (2.5 mM) were mixed at 1:1 ratio. P50 values were measured as before.

human RBCs = details: large-volume continuous-flow electroporation; cited from earlier work
[7] = iv 200 μL of 30 mM, 1 mouse injected
[8] = EFF:WB 1:0.375, 220 mOsM, 30 mM
[9] = EFF:WB 1:0.375, 224 mOsM, 30 mM

CC(C)CCCC(C)C1CCC2C3CC=C4CC(OC(=O)OP(=O)(O)OC5C(OP(=O)(O)O)C(OP(=O)(O)O)C(OP(=O)(O)O)C(OP(=O)(O)O)C5OP(=O)(O)O)CCC4(C)C3CCC12C.CN(C)C1CCCCC1.CN(C)C1CCCCC1.CN(C)C1CCCCC1.CN(C)C1CCCCC1.CN(C)C1CCCCC1.CN(C)C1CCCCC1.CN(C)C1CCCCC1.CN(C)C1CCCCC1 (centres unmarked) [SV192, Inositol hexaphosphate-cholesteroloxycarbonyl, octa N,N-dimethyl-cyclohexylammonium salt]
Number of mice died (C57B1/6 mice [1]; [7]): 1
toxicity upon iv injection in mice (C57B1/6 mice [1]): high level of toxicity
shift of P50 in blood of surviving mice (C57B1/6 mice [1]): did not show a significant shift of P50
P50 mm Hg EFF:WB (fHb) (Free Hemoglobin): 32.5 mm Hg
Shift of P50 % (C57B1/6 mice [2]; iv 135 μL of 30 nM): <3%
Number of mice died (C57B1/6 mice [2]; iv 135 μL of 30 mM, 2 mice injected): 0
Number of mice died (C57B1/6 mice [2]; iv 165 μL of 30 mM, 2 mice injected): 2
lysis of RBC on incubation ([3]; human WB, EFF:WB 1:0.375, 224 mOsM, 30 mM): Lyses; also recorded: lysis
P50 Increase % ([3]; human WB, 224 mOsM, 30 mM): 26%
P50 mm HG EFF:WB ([3]; human WB, 224 mOsM, 30 mM): 29.5 mm Hg
P50 Increase % ([3]; human WB, 310 mOsM, 30 mM): 25%
P50 mm HG EFF:WB ([3]; human WB, 310 mOsM, 30 mM): 30 mm Hg
lysis of the RBC [3]: no lysis
lysis of red blood cells (hemolysis) ([3]; listed as 2b): did not trigger hemolysis
lysis of red blood cells (hemolysis) ([3]; listed as IHP-cholesterol derivative with N,N-dimethyl-cyclohexylammonium countercations): without any detectable cell lysis

CC(C)CCCC(C)C1CCC2C3CC=C4CC(OC(=O)OP(=O)(O)OC5C(OP(=O)(O)O)C(OP(=O)(O)O)C(OP(=O)(O)O)C(OP(=O)(O)O)C5OP(=O)(O)O)CCC4(C)C3CCC12C.CCCCN(CCCC)CCCC.CCCCN(CCCC)CCCC.CCCCN(CCCC)CCCC.CCCCN(CCCC)CCCC.CCCCN(CCCC)CCCC.CCCCN(CCCC)CCCC (centres unmarked) [Effector 2a, Inositol hexaphosphate-cholesteroloxycarbonyl, hexa tributyl-ammonium salt]
lysis of red blood cells (hemolysis) [3]: triggered the lysis of the red blood cells

CC(C)CCCC(C)C1CCC2C3CC=C4CC(OC(=O)OP(=O)(O)OC5C(OP(=O)(O)O)C(OP(=O)(O)O)C(OP(=O)(O)O)C(OP(=O)(O)O)C5OP(=O)(O)O)CCC4(C)C3CCC12C.CN(C)C1CCCCC1.CN(C)C1CCCCC1.CN(C)C1CCCCC1.CN(C)C1CCCCC1.CN(C)C1CCCCC1.CN(C)C1CCCCC1.CN(C)C1CCCCC1.CN(C)C1CCCCC1 (centres unmarked) [SV192ter]
P50 mm HG EFF:WB [4, 8]: 46.4 mm Hg
P50 mm HG EFF:WB ([4]; EFF:WB 1:1.5, 264 mOsM, 15 mM): 42.2 mm Hg
P50 mm HG EFF:WB ([4]; EFF:WB 1:1.5, 276 mOsM, 30 mM): 43.5 mm Hg
P50 mm HG EFF:WB ([4]; EFF:WB 1:1.5, 283 mOsM, 5 mM): 43.1 mm Hg
P50 mm HG EFF:WB ([4]; EFF:WB 1:1.5, 314 mOsM, 60 mM): 43.1 mm Hg
P50 mm HG EFF:WB ([4]; EFF:WB 1:1.5, 320 mOsM, 30 mM): 41.4 mm Hg and 43.4 mm Hg and 41.9 mm Hg
P50 mm HG EFF:WB ([4]; EFF:WB 1:1.5, 320 mOsM, 50 mM): 42.6 mm Hg
P50 Increase % [4, 8]: 8%
P50 Increase % ([4]; EFF:WB 1:1.5, 264 mOsM, 15 mM): 2%
P50 Increase % ([4]; EFF:WB 1:1.5, 276 mOsM, 30 mM): 5%
P50 Increase % ([4]; EFF:WB 1:1.5, 283 mOsM, 5 mM): 7%
P50 Increase % ([4]; EFF:WB 1:1.5, 314 mOsM, 60 mM): 4%
P50 Increase % ([4]; EFF:WB 1:1.5, 320 mOsM, 30 mM): 8% and 13% and 9%
P50 Increase % ([4]; EFF:WB 1:1.5, 320 mOsM, 50 mM): 5%
P50 Increase % ([3]; human WB, 202 mOsM, 30 mM): 5%
P50 mm HG EFF:WB ([3]; human WB, 202 mOsM, 30 mM): 26.3 mm Hg
P50 Increase % ([3]; human WB, 258 mOsM, 30 mM): 2%
P50 mm HG EFF:WB ([3]; human WB, 258 mOsM, 30 mM): 25.6 mm Hg
P50 Increase % ([3]; human WB, 274 mOsM, 30 mM): 3%
P50 mm HG EFF:WB ([3]; human WB, 274 mOsM, 30 mM): 26.8 mm Hg
P50 Increase % ([3]; human WB, 303 mOsM, 30 mM): 4%
P50 mm HG EFF:WB ([3]; human WB, 303 mOsM, 30 mM): 26.2 mm Hg
lysis of the RBC [3]: no lysis

O=C(O)C(COP(=O)(O)O)OP(=O)(O)O (centres unmarked) [2,3-Diphosphoglycerate]
O2 half-saturation pressure P(O2)(½) of stripped hemoglobin (stripped hemoglobin; 25 C, without effector 4.3): 12.0 mm Hg
O2 half-saturation pressure P(O2)(½) of stripped hemoglobin (stripped hemoglobin; 37 C, without effector 9.3): 23.7 mm Hg

Inositol hexaphosphate-cholesteroloxycarbonyl, hepta N,N-dimethyl-cyclohexylammonium salt [KF16]
right shift of P50 after ip injection (mice RBC): strong right shift of P50
P50 mm Hg EFF:WB ([4]; 1:1.5, 283 mOsM, pH 7.1, 30 mM, 60 min 37° C.): 36.14 mm Hg
P50 Increase % (C57B1/6 mice [5]; iv 200 μL of 60 mM, 2 h after injection): > 10%
right shift in P50 value at lower concentrations (C57B1/6 mice [5]; iv, concentrations lower than 60 mM): 6-9%
P50 Increase % [6]: 90%
P50 mm Hg EFF/fHb [6]: 52.17 mm Hg

CC(C)CCCC(C)C1CCC2C3CC=C4CC(OC(=O)OP(=O)([O-])OC5C(OP(=O)([O-])[O-])C(OP(=O)([O-])[O-])C(OP(=O)([O-])[O-])C(OP(=O)([O-])[O-])C5OP(=O)([O-])[O-])CCC4(C)C3CCC12C.[Na+].[Na+].[Na+].[Na+].[Na+].[Na+].[Na+].[Na+].[Na+].[Na+].[Na+] (centres unmarked) [SV184, Inositol hexaphosphate-cholesteroloxycarbonyl, undecanyl sod ium salt]
P50 mm HG EFF:WB [4, 9]: 44.3 mm Hg
P50 mm HG EFF:WB ([4]; EFF:WB 1:1.5, 310 mOsM, 30 mM): 41.8 mm Hg
P50 Increase % [4, 9]: 15%
P50 Increase % ([4]; EFF:WB 1:1.5, 310 mOsM, 30 mM): 9%
P50 (FIG. 2, Curve B) (C57B1/6 mice [1]; IV, WB mouse, 1 h, saline control P50=33.3): 41.0
% increase of P50 (FIG. 2) (C57B1/6 mice [1]; IV, WB mouse, 1 h, versus saline control): 23.12%
toxicity upon iv injection in mice (C57B1/6 mice [1]): high level of toxicity
shift of P50 in blood of surviving mice (C57B1/6 mice [1]): did not show a significant shift of P50
Shift of P50 % (C57B1/6 mice [2]; iv 150 μL of 30 nM): <5%
Number of mice died (C57B1/6 mice [2]; iv 150 μL of 30 mM, 4 mice injected): 0
Number of mice died (C57B1/6 mice [2]; [7]): 1
P50 Increase % ([3]; human WB, 232 mOsM, 30 mM): 16%
P50 mm HG EFF:WB ([3]; human WB, 232 mOsM, 30 mM): 30.4 mm Hg
P50 mm HG EFF:WB ([3]; human WB, 310 mOsM, 30 mM): 30 mm Hg

O=P(O)(O)O[C@H]1[C@H](OP(=O)(O)O)[C@@H](OP(=O)(O)O)[C@H](OP(=O)(O)O)[C@@H](OP(=O)(O)O)[C@H]1OP(=O)(O)O [IHP, inositol hexaphosphate]
O2 half-saturation pressure P(O2)(½) of stripped hemoglobin (stripped hemoglobin; 25 C, without effector 4.3): 48.4 mm Hg
O2 half-saturation pressure P(O2)(½) of stripped hemoglobin (stripped hemoglobin; 37 C, without effector 9.3): 96.4 mm Hg
P50 of human RBCs with encapsulated IHP (human RBCs): approximately 50 torr

CC(C)CCCC(C)C1CCC2C3CC=C4CC(OC(=O)OP(=O)(O)OC5C(OP(=O)(O)O)C(OP(=O)(O)O)C(OP(=O)(O)O)C(OP(=O)(O)O)C5OP(=O)(O)O)CCC4(C)C3CCC12C.CN(C)C1CCCCC1.CN(C)C1CCCCC1.CN(C)C1CCCCC1.CN(C)C1CCCCC1.CN(C)C1CCCCC1.CN(C)C1CCCCC1.CN(C)C1CCCCC1.CN(C)C1CCCCC1 (centres unmarked) [SV192bis]
P50 Increase % ([3]; human WB, 220 mOsM, 30 mM): 6%
P50 mm HG EFF:WB ([3]; human WB, 220 mOsM, 30 mM): 26.6 mm Hg
P50 Increase % ([3]; human WB, 272 mOsM, 30 mM): 6%
P50 mm HG EFF:WB ([3]; human WB, 272 mOsM, 30 mM): 24 mm Hg
P50 Increase % ([3]; human WB, 306 mOsM, 30 mM): 13%
P50 mm HG EFF:WB ([3]; human WB, 306 mOsM, 30 mM): 28.3 mm Hg
lysis of the RBC [3]: no lysis
